Measured values: article PMC6737244, “Cathelicidin Peptides Restrict Bacterial Growth via Membrane Perturbation and Induction of Reactive Oxygen Species” (mBio, 2019)
Ends that are not written are not given here.

What was measured:
[1] = system: Enterobacter cloacae OC4080; type: cell-based
Experimental: (§1) MICs were determined by using the broth microdilution method based on the general recommendations of the Clinical and Laboratory Standards Institute (CLSI). Bacteria were grown in CAMHB overnight. They were then diluted into fresh medium the following morning and grown to early log phase. The cultures were then diluted to approximately 5 × 10^5 CFU ml^−1, and 100 μl was added to sterile 96-well polypropylene microtiter plates (Corning, NY, USA) preloaded with twofold dilutions of antimicrobial peptides. […] All MIC assays were determined from at least three independent assays.

[2] = system: Enterobacter cloacae OC4092; type: cell-based
Experimental: as §1

[3] = system: Escherichia coli ATCC 25922; type: cell-based
Experimental: as §1

[4] = system: Escherichia coli ATCC 35218; type: cell-based
Experimental: as §1

[5] = system: Escherichia coli MC4100a; type: cell-based
Experimental: as §1

[6] = system: Escherichia coli OC4075; type: cell-based
Experimental: as §1

[7] = system: Escherichia coli UTI89; type: cell-based
Experimental: as §1

[8] = system: Klebsiella pneumoniae 262 (NDM1+); type: cell-based
Experimental: as §1

[9] = system: Klebsiella pneumoniae 88 (NDM1+); type: cell-based
Experimental: as §1

[10] = system: Klebsiella pneumoniae ATCC 700603; type: cell-based
Experimental: as §1

[11] = system: Klebsiella pneumoniae C2; type: cell-based
Experimental: as §1

[12] = system: Klebsiella pneumoniae OC4110; type: cell-based
Experimental: as §1

[13] = system: Klebsiella pneumoniae OC8893; type: cell-based
Experimental: as §1

[14] = system: Pseudomonas aeruginosa ATCC 27853; type: cell-based
Experimental: as §1

[15] = system: Pseudomonas aeruginosa OC4083; type: cell-based
Experimental: as §1

[16] = system: Pseudomonas aeruginosa PAO1; type: cell-based
Experimental: as §1

[17] = system: V. cholerae; experiment: SYTOX Green membrane damage, single-cell imaging; type: cell-based, Vibrio cholerae; conditions: for Number of fluorescent cells: V. cholerae, 25, 50 or 100 nM peptide (Fig. S4; legend says SYTOX Green)
Experimental: To better understand the membrane blebbing event, V. cholerae was treated with B22 in the presence of SYTOX Green and imaged on agarose pads to stabilize cells with compromised envelopes. SYTOX Green is a fluorescent nucleic acid stain that is impermeant to live cells and is used to distinguish dead or dying cells in a population ([17]). Cells were treated with a sublethal (1 μM) concentration of B22 in order to visualize physiological changes in susceptible and unaffected cells simultaneously. Time-lapse phase-contrast imaging was used to monitor tip-to-tip cell length and membrane integrity.
SYTOX Green (Invitrogen, Carlsbad, CA, USA) uptake was used to monitor the effect of the AMPs on bacterial membranes. Mid-log cells were resuspended in CAMHB to 1 × 10^6 CFU/ml and seeded into microfluidic chambers as described above. The cells were then flushed with medium containing 0.1 μM SYTOX Green for 5 min. The same medium was used for control cells, while the medium for treatment samples also included AMP at the indicated concentration. Fluorescence was detected by microscopy as described earlier using the GFP filter set.

[18] = system: V. cholerae; experiment: Single-cell real-time phase-contrast imaging in microfluidic chambers; type: cell-based, Vibrio cholerae; conditions: 2 μM peptide, continuous flow
Experimental: To better understand the antimicrobial activity of the peptides, we developed a single-cell, real-time imaging assay to monitor the disruption of V. cholerae cells. Bacteria were seeded into microfluidic chambers and grown under continuous flow before imaging by phase-contrast microscopy. Untreated V. cholerae cells retained their characteristic comma shape, cell length (1 by 2 μm), and membrane integrity (Fig. S2). Conversely, cells treated with 2 μM B22 (or B22a) began losing their shape and were noticeably shorter within 30 s (Fig. S2).
Imaging of individual cells was conducted using the CellAsic microfluidic perfusion system (ONIX) with integrated temperature controller and B04A bacterial microfluidic plates (EMD Millipore, Billerica, MA). The CellAsic ONIX FG software (v 5.0.2.0) was used to control flow rate and deliver fresh medium with or without antimicrobial peptide (AMP). The chambers were loaded by perfusion of 50 μl of a 10^6 cells/ml bacterial suspension at 2 lb/in^2 for 15 s to prime the cells followed by 4 lb/in^2 for 15 s to trap the cells. The chamber was then rinsed at 1 lb/in^2 for 30 s followed by 5 lb/in^2 for 5 min. To quickly switch solutions, medium was perfused at 10 lb/in^2 for 10 s, and then flow was reduced to 2 lb/in^2 for the remainder of the imaging.

[19] = system: S. aureus; experiment: Growth of cultures (OD600) with sublethal peptide; type: cell-based, Staphylococcus aureus; conditions: for Effect on growth of S. aureus cultures: 30 nM peptide, CAMHB, OD600
Experimental: To examine this further, we monitored the growth of S. aureus cultures after the addition of 30 nM B22 or B22a. This concentration is in the biologically relevant range of peptide that is produced by mammals ([13]). […] Cell growth recovered at later time points (data not shown).

[20] = system: S. aureus; experiment: CellROX ROS production, imaging; type: cell-based, Staphylococcus aureus; conditions: for CellROX oxidative signal, parental strain: S. aureus WT; for CellROX oxidative signal, parental strain / CellROX oxidative signal, sodA or sodM null mutants: 100 nM, 30 min; for CellROX oxidative signal, sodA or sodM null mutants: S. aureus sodA or sodM
From the text: The growth rate of the sodA mutant in the absence of peptide was lower than that of the wild type (WT), underscoring the importance of effectively controlling O2^− accumulation.

[21] = system: P. aeruginosa; experiment: Growth of cultures (OD600) with sublethal peptide; conditions: 20 nM, 2 h, CAMHB
[22] = system: E. coli; experiment: Growth of cultures (OD600) with sublethal peptide; conditions: nanomolar (30 nM) peptide, means of four data sets
[23] = system: E. cloacae; experiment: Growth of cultures (OD600) with sublethal peptide; conditions: nanomolar (30 nM) peptide, means of four data sets
[24] = system: V. cholerae; experiment: Growth of cultures (OD600) with sublethal peptide; conditions: nanomolar (30 nM) peptide, means of four data sets
[25] = system: Escherichia coli IU342; experiment: MIC, broth microdilution; type: cell-based; conditions: CAMHB, 16 to 18 h, at least three independent assays
Experimental: as §1

Row | Substance | MIC [1] [µM] | MIC [2] [µM] | MIC [3] [µM] | MIC [4] [µM] | MIC [5] [µM] | MIC [6] [µM] | MIC [7] [µM] | MIC [8] [µM] | MIC [9] [µM] | MIC [10] [µM] | MIC [11] [µM] | MIC [12] [µM] | MIC [13] [µM] | MIC [14] [µM] | MIC [15] [µM] | MIC [16] [µM] | Number of fluorescent cells [17] | Time until cells began losing shape and were noticeably shorter [18] [s] | Effect on growth of S. aureus cultures [19] | CellROX oxidative signal, parental strain [20] | further results
1 | FRKKLKKLFKKLSPVIPLLKLG [B22] | 4 | 4 | 2 | 4 | 4 | 4 | 2 | 4 | 4 | 2 | 4 | 4 | 4 | 4 | 2 | 4 | increased | ≤ 30 | reduced the initial growth rate | weak signal | Share of population with strong cytoplasmic SYTOX Green signal ([17]; 1 μM (sublethal), agarose pads, SYTOX Green): approximately 35%; Decrease in cell contrast of dying cells ([17]; 1 μM, agarose pads, time-lapse phase contrast): > 90%; Effect on growth of WT strain ([19]; S. aureus WT, 30 nM): slowed the growth; Effect on growth of sodA mutant ([19]; S. aureus sodA, 30 nM, compared with WT): to an even greater extent; CellROX oxidative signal, sodA or sodM null mutants [20]: strong oxidative signal; CellROX oxidative signal ([20]; S. aureus, 500 nM, 2.5 μM CellROX): fluorescent burst; Initial growth of P. aeruginosa relative to control [21]: significantly reduced; Effect on growth rate [22]: reproducibly reduced the growth rate; Effect on growth rate [23]: reproducibly reduced the growth rate; Effect on growth rate [24]: reproducibly reduced the growth rate
2 | FRKKLKKLFKKLSPVIPLLKLG-NH2 [B22a] | 4 | 4 | 2 | 2 | 4 | 2 | 2 | 4 | 2 | 2 | 2 | 2 | 2 | 2 | 2 | 2 | increased | ≤ 30 | reduced the initial growth rate | weak signal | MIC [25]: 2 µM; CellROX oxidative signal, sodA or sodM null mutants [20]: strong oxidative signal; Effect on growth rate [22]: reproducibly reduced the growth rate; Effect on growth rate [23]: reproducibly reduced the growth rate; Effect on growth rate [24]: reproducibly reduced the growth rate
